Assay results: article PMC5556071, “ATR inhibition facilitates targeting of leukemia dependence on convergent nucleotide biosynthetic pathways” (Nature Communications, 2017)
Several values for one entry are separate records, joined by “and”; a condition that tells them apart may be missing. Identical values can stand only once.

Tested on: CEM cells
Test: Non-targeted LC-MS metabolite profiling: percent [13C6]glucose labeling and relative metabolite levels
Format: cell-based, human
Conditions: CEM cells, 12 h following release from G1 arrest, replicates #1-#6
From the text: To further investigate the functions of dCK and ATR at the G1/S transition in CEM cells, a non-targeted liquid chromatography mass spectrometry (LC-MS) assay was used to determine the utilization of labeled [^13C6]glucose and [^13C9,^15N3]deoxycytidine, the main substrates for de novo and salvage nucleotide biosynthesis, respectively. Of the 166 metabolites identified in CEM cells treated with VE-822 and/or dCKi, 105 metabolites found in all four treatment groups contained glucose-derived ^13C atoms. […] These metabolites included intermediates such as rUTP, rCTP and rCDP in the de novo dCTP biosynthesis (Fig. 1d). […] However, several deoxyribonucleotides, including dCTP, were below the limit of detection of the non-targeted LC-MS approach, raising the concern that the sensitivity of this assay is not sufficient to measure the contribution of the salvage pathway or the ratio of de novo and salvage biosynthesis to these pools. To address this problem, a newly developed targeted MS assay was developed (Fig. 1e and Supplementary Fig. 3). In this assay, samples containing either extracted dNTPs or hydrolyzed DNA from labeled cells are separated by LC for detection by a triple quadrupole mass spectrometer using multiple reaction monitoring (LC-MS/MS-MRM). The first (Q1) and third (Q3) quadrupoles function as mass filters, while the second (Q2) quadrupole serves as a collision chamber (Fig. 1e). For instance, to profile the biosynthetic composition of deoxycytidine (dC) derived from hydrolyzed DNA or dCTP, an intact, protonated dC ion is selected in Q1, followed by fragmentation of the glycosidic bond, which releases protonated cytosine in Q2, that is filtered in Q3 and detected to generate an ion chromatogram. The peak areas for the ion chromatograms of salvage [^13C9,^15N3]dC (red trace), de novo [^13C5]dC (black trace, from [^13C6]glucose) and unlabeled dC (gray trace) (Fig. 1e) are used to determine the relative contributions of the de novo and salvage routes both to dCTP pools and to DNA-incorporated dCTP.
Cells were transferred into RPMI-1640 without glucose and supplemented with 10% dialyzed FBS (Gibco) containing the following labeled substrates: precursors for de novo [U-^13C6]glucose (Sigma-Aldrich, 389374) at 11 mM; precursors for purine salvage [U-^13C10,^15N5]dA (Cambridge Isotopes, CIL 3896), [^15N5]dA (Cambridge Isotopes, NLM-3895) and [^15N5]dG (Cambridge Isotopes, NLM-3899) at 5 µM or as indicated; and precursors for pyrimidine salvage: [U-^13C9,^15N3]dC (Silantes, 124603602) and [U-^13C10,^15N2]dT (Cambridge Isotopes, CNLM-3902) at 5 µM and [^15N2]orotate (Cambridge Isotopes, NLM-1048) at indicated concentrations. The cells were incubated for 12 h or as indicated before sample collection and processing. […]
Non-targeted LC-MS metabolic assays. 1 x 10^6 cells were washed with ice-cold 150 mM ammonium acetate twice before adding 1 mL of ice-cold 80% methanol with 10 nM norvaline as an internal standard. After vigorous vortexing, samples were centrifuged at maximum speed, the aqueous layer was transferred to a glass vial and the metabolites were dried under vacuum. Metabolites were resuspended in 50 μL 70% acetonitrile (ACN) and 5 μL of this solution used for the mass spectrometer-based analysis. The analysis was performed on a Q Exactive (Thermo Scientific) in polarity-switching mode with positive voltage 4.0 kV and negative voltage 4.0 kV. The mass spectrometer was coupled to an UltiMate 3000RSLC (Thermo Scientific) UHPLC system. Mobile phase A was 5 mM ammonium acetate (NH4AcO), pH 9.9, B was acetonitrile and the separation achieved on a Luna […] NH2 100 A column (150 × 2.0 mm, Phenomenex). The flow was 200 μL/min, and the gradient ran from 15% A to 95% A in 18 min, followed by an isocratic step for 9 min and re-equilibration for 7 min. Metabolites were detected and quantified as area under the curve based on retention time and accurate mass (≤ 3 p.p.m.) using the TraceFinder 3.1 (Thermo Scientific). Relative amounts of […]

[1] = metabolite 2-HG (C02630), listed as V
[2] = metabolite 2-HIC (C03264), listed as V
[3] = metabolite 3PG (C00197), listed as V
[4] = metabolite 5-Oxoproline (C01879), listed as V
[5] = metabolite A (C00212), listed as V
[6] = metabolite ADP (C00008), listed as V
[7] = metabolite AMP (C00020), listed as V
[8] = metabolite ATP (C00002), listed as V
[9] = metabolite Ac-carnitine (C02571), listed as V
[10] = metabolite Ac-choline (C01996), listed as V
[11] = metabolite Aconitate (C00417), listed as V
[12] = metabolite Adenine (C00034), listed as V
[13] = metabolite Ala (C00041), listed as V
[14] = metabolite Allantoin (C02350), listed as V
[15] = metabolite Arg (C00062), listed as V
[16] = metabolite Arg-Succ (C03406), listed as V

CNCc1ccc(-c2cc(-c3nc(-c4ccc(S(=O)(=O)C(C)C)cc4)cnc3N)on2)cc1 [VE-822]
Relative level, Sarc (C00213) (listed as V): 1.3 (2×) and 1.2 and 0.569 and 0.751 and 0.6 | Relative level, Ser (C00065) (listed as V): 1.4 and 1.5 (2×) and 0.9 and 1.0 and 0.949 | Relative level, Shikimate (C00493) (listed as V): 1.3 and 1.2 and 1.5 and 1.1 and 0.8 (2×) | Relative level, Succ (C00042) (listed as V): 1.6 (2×) and 1.3 and 1.1 and 0.5 (2×) | Relative level, T (C00214) (listed as V): 1.1 (2×) and 1.3 (2×) and 1.2 and 1.4 | Relative level, Thr (C00188) (listed as V): 1.5 and 1.6 (2×) and 1.0 and 0.949 and 0.9 | Relative level, Thymine (C00178) (listed as V): 1.4 and 1.5 (2×) and 1.0 (2×) and 1.2 | Relative level, Trigonelline (C01004) (listed as V): 1.3 (3×) and 1.5 and 0.8 and 1.2 | Relative level, Trp (C00078) (listed as V): 1.4 and 1.5 (2×) and 0.9 (2×) and 1.0 | Relative level, Tyr (C00082) (listed as V): 1.4 and 1.6 (2×) and 0.9 (3×) | Relative level, Tyramine (C00483) (listed as V): 1.0 and 1.1 and 1.7 and 0.8 (2×) and 0.7 | Relative level, UDP (C00015) (listed as V): 2.4 and 1.3 and 1.6 and 1.1 and 0.7 and 0.6 | Relative level, UDP-Glc (C00029) (listed as V): 2.4 and 2.0 and 2.8 and 1.5 and 1.4 and 1.7 | Relative level, UDP-GlcNAc (C00043) (listed as V): 1.2 and 1.1 and 1.4 and 0.747 and 0.8 and 0.9 | Relative level, UMP (C00105) (listed as V): 2.6 and 2.3 and 2.5 and 2.0 and 0.7 (2×) | Relative level, UTP (C00075) (listed as V): 1.2 and 0.571 and 0.7 and 0.75 and 0.4 and 0.355 | Relative level, Uracil (C00106) (listed as V): 1.2 (2×) and 2.0 and 2.6 and 1.1 and 0.8 | Relative level, Uric Acid (C00366) (listed as V): 0.5 and 0.9 and 1.4 and 0.242 and 0.282 and 0.253 | Relative level, Urocanate (C00785) (listed as V): 0.542 and 1.3 and 1.4 and 0.452 and 0.8 and 0.7 | Relative level, Val (C00183) (listed as V): 1.1 and 1.3 (2×) and 1.5 and 0.9 (2×) | Relative level, Vit-C (C00072) (listed as V): 5.1 and 1.4 (2×) and 2.3 and 0.5 and 0.2 | Relative level, Xanthine (C00385) (listed as V): 0.9 and 1.7 and 2.5 and 2.4 and 0.843 and 0.6 | Glucose labeling, 2-HG [1]: 9.00% and 8.24% and 8.56% and 6.59% and 3.26% and 5.24% | Relative level, 2-HG [1]: 1.5 and 1.0 and 1.3 and 0.9 and 0.545 and 0.5 | Glucose labeling, 2-HIC [2]: -2.22e-14% and 0.00% (5×) | Relative level, 2-HIC [2]: 1.2 (2×) and 1.5 (2×) and 0.8 and 0.9 | Glucose labeling, 2-KIC (metabolite 2-KIC (C00233)): 0.00% | Relative level, 2-KIC (metabolite 2-KIC (C00233), listed as V): 1.1 and 1.2 and 1.3 and 0.9 (2×) and 0.8 | Glucose labeling, 2-Oxoadipate (metabolite 2-Oxoadipate (C00322)): 0.00% | Relative level, 2-Oxoadipate (metabolite 2-Oxoadipate (C00322), listed as V): 1.3 and 1.0 (2×) and 1.4 and 1.1 and 0.759 | Glucose labeling, 2-Oxosuccinamate (metabolite 2-Oxosuccinamate (C02362)): 0.0737% | Relative level, 2-Oxosuccinamate (metabolite 2-Oxosuccinamate (C02362), listed as V): 0.8 and 0.9 and 1.6 and 2.4 and 0.5 and 0.438 | Glucose labeling, 3PG [3]: 98.64% and 92.25% and 93.08% and 80.82% and 100.00% (2×) | Relative level, 3PG [3]: 1.3 and 0.262 and 0.5 (2×) and 0.0899 and 0.0949 | Glucose labeling, 4-OH-PheLac (metabolite 4-OH-PheLac (C03672)): 0.00% | Relative level, 4-OH-PheLac (metabolite 4-OH-PheLac (C03672), listed as V): 1.0 and 1.1 and 1.3 and 0.7 and 0.5 and 0.6 | Glucose labeling, 5-Oxoproline [4]: 1.06% and 0.96% and 1.16% and 0.74% (2×) and 0.98% | Relative level, 5-Oxoproline [4]: 1.0 (2×) and 1.1 (2×) and 0.9 and 0.7 | Glucose labeling, 5M-adenosine (metabolite 5M-adenosine (C00170)): 0.00% | Relative level, 5M-adenosine (metabolite 5M-adenosine (C00170), listed as V): 1.7 and 1.9 (2×) and 1.3 (2×) and 1.4 | Glucose labeling, A [5]: 0.0217% and 0.39% and 0.36% and 0.0233% and 0.0286% and 0.01% | Relative level, A [5]: 1.7 and 1.1 and 1.2 and 4.1 and 1.0 and 1.8 | Glucose labeling, ADP [6]: 63.63% and 60.29% and 63.02% and 59.23% and 57.33% and 59.16% | Relative level, ADP [6]: 2.2 and 1.0 and 1.4 and 1.2 and 0.6 (2×) | Glucose labeling, AMP [7]: 58.98% and 57.42% and 62.07% and 26.04% and 58.67% and 50.37% | Relative level, AMP [7]: 2.8 and 1.7 and 2.2 and 3.0 and 0.8 and 0.7 | Glucose labeling, ATP [8]: 65.50% and 64.37% and 65.03% and 64.82% and 61.07% and 61.72% | Relative level, ATP [8]: 1.5 and 0.6 and 0.849 and 0.9 and 0.466 and 0.5 | Glucose labeling, Ac-carnitine [9]: 29.64% and 30.01% and 28.25% and 21.49% and 24.07% and 21.63% | Relative level, Ac-carnitine [9]: 1.1 (2×) and 1.2 and 0.7 (2×) and 0.8 | Glucose labeling, Ac-choline [10]: 0.00429% and 0.00459% and 0.00523% and 0.00396% and 0.00509% and 0.00552% | Relative level, Ac-choline [10]: 0.746 and 0.8 (3×) and 0.76 and 0.9 | Glucose labeling, Aconitate [11]: 33.62% and 26.91% and 31.71% and 21.17% and 28.64% and 25.94% | Relative level, Aconitate [11]: 1.0 and 0.433 and 0.659 and 0.53 and 0.3 and 0.355 | Glucose labeling, Adenine [12]: 1.88e-5% and 1.21e-5% and 0.00361% and 1.25e-5% and 1.11e-5% and 0.0013% | Relative level, Adenine [12]: 1.8 and 3.0 and 3.1 and 41.9 and 2.1 and 1.5 | Glucose labeling, Ala [13]: 57.46% and 55.60% and 53.77% and 47.90% and 47.23% and 52.00% | Relative level, Ala [13]: 1.3 and 1.5 (2×) and 0.9 (2×) and 1.0 | Glucose labeling, Allantoin [14]: 0.00% (5×) and -2.22e-14% | Relative level, Allantoin [14]: 1.3 (2×) and 1.7 and 1.1 and 0.7 and 1.0 | Glucose labeling, Arg [15]: 0.00452% and 0.00428% and 0.00453% and 0.00405% and 0.00437% and 0.00476% | Relative level, Arg [15]: 1.5 and 1.7 and 1.6 and 0.9 (2×) and 1.1 | Glucose labeling, Arg-Succ [16]: 10.44% and 8.30% and 5.56% and 3.28% and 1.95% and 6.31% | Relative level, Arg-Succ [16]: 1.4 and 1.3 and 1.5 and 0.9 and 0.6 and 0.5 | Glucose labeling, Asn (metabolite Asn (C00152), listed as V): 5.14e-5% and 2.85e-6% and 2.32e-6% and 0.000702% and 2.84e-6% and 2.39e-6%
